Entries after “also recorded” stand apart in the source; their conditions may differ.
Assays:
[1] = target: T1, TLR2/6 (Homo sapiens, UniProt O60603+Q9Y2C9); assay: FSL-1-induced TNF-α secretion (ELISA) in THP1-derived macrophages; assay type: cell-based; details: 1 to 50 μM, FIG. 4D
T1 construct: endogenous in cells; host or cells: THP1-derived macrophages (PMA-differentiated)

[2] = test system: TLR7/8; assay: TLR7/8-mediated IL-6 expression in THP-1 cells; assay type: cell-based, human; details: FIG. 4C
Method: RAW264.7 cells (ATCC, Manassas, Va., USA), which are mouse macrophages, were cultured in low-glucose DMEM (Thermo Fisher Scientific Inc.) supplemented with 10% FBS, 100 IU/ml penicillin and 100 μg/ml streptomycin in a culture system. Human monocyte THP1 cells were cultured in RPMI 1640 (Thermo Fisher Scientific Inc.) supplemented with 10% FBS, 100 IU/ml penicillin and 100 μg/ml streptomycin and then differentiation thereof into macrophages was induced using 10 nM phorbol 12-myristate 13-acetate (PMA) (Sigma-Aldrich Co. LLC.) for 24 hours. CL075, R848, CpG-ODN and Poly(I:C) were purchased from InvivoGen (San Diego, Calif., USA), and LPS was purchased from Sigma-Aldrich Co. (St. Louis, Mo., USA).
Cytotoxicity in RAW 264.7 cells was tested by treatment with these compounds at a concentration of 12.5 to 50 μM. […] The inhibitory effect of TAC5-a on TLR-mediated signaling was confirmed by measuring TNF-α secretion through ELISA in THP1-derived macrophages. […] In addition, in order to evaluate the antagonistic effect of TAC5-a on endosomal TLR activation, cells were cultured along with this compound in the presence of R848 (TLR7/8) or CL075 (TLR7/8), imiquimod (IMQ; TLR7), TL8 (TLR8), poly(I:C) (TLR3) or CpG ODN (TLR9) (FIGS. 4E, 4F and 4G).

[3] = test system: MARC/lpr mice; assay: SLE mouse model (MARC/lpr mice); assay type: in vivo
Method: QRT-PCR analysis was performed to detect the expression levels of specific genes in lymph nodes, spleen and kidney. Total RNA was isolated from lymph nodes, spleen and kidneys of 16-week-old mice using TRI reagent (Sigma-Aldrich, Co.). RNA was applied to qRT-PCR based on SYBR green (Enzo Life Sciences, Inc., Farmingdale, N.Y., USA). The following primers for the marker gene were used: mTLR7, 5′-ATGTGGACACGGAAGAGACAA-3′(SEQ ID NO: 1) and 5′-GGT AAG GGT AAG ATT GGT G-3′(SEQ ID NO: 2); mTLR9, 5′-ATGGTTCTCCGTCGAAGGACT-3′ (SEQ ID NO: 3) and 5′-GAG GCT TCA GCT CAC AGG G-3′(SEQ ID NO: 4); mIL-6, 5′-GAGGATACCACTCCCAACAGACC-3′(SEQ ID NO: 5) and 5′-AAGTGCATCATCGTTGTTCATACA-3′(SEQ ID NO: 6); mMyd88, 5′-CACCTGTGTCTGGTCCATTG-3′(SEQ ID NO: 7) and 5′-CTGTTGGACACCTGGAGACA-3′(SEQ ID NO: 8); mIL-17, 5′-GCT CCA GAA GGC CCT CAG A-3′ (SEQ ID NO: 9) and 5′-AGC TTT CCC TCC GCA TTG A-3′(SEQ ID NO: 10); mGAPDH, 5′-CTCAACACGGGAAACCTCAC-3′ (SEQ ID NO: 11) and 5′-CGCTCCACCAACTAAGAACG-3′(SEQ ID NO: 12) (Bioneer, Daejeon, Korea). Quantified individual RNA expression levels were normalized to GAPDH and expressed as RNA expression levels relative to the corresponding wild-type mice.
The therapeutic potential of TAC5-a on systemic autoimmunity was further determined by intraperitoneally injecting 10 nmol/g (daily dosage) of TAC5-a (dissolved in 1% dimethylsulfoxide [DMSO]) into MARC/lpr mice for 11 days. This inhibitor clearly influenced mouse lymphatic proliferation. […] The production of anti-dsDNA autoantibodies was kept low (FIG. 6B), and serum antinuclear antibodies (ANAs) were reduced by treatment with inhibitors (FIG. 6C). The detection of certain proteins, such as albumin, in the urine serves as a marker for a kidney pathology called glomerulonephritis (GN), which is caused by inflammation of the glomerulus. […] Then, the effect of TAC5-a on the relative expression behaviors of specific genes in lymph nodes, spleen and kidneys at the transcription level was confirmed.

T1 sequence (O60603 21-784): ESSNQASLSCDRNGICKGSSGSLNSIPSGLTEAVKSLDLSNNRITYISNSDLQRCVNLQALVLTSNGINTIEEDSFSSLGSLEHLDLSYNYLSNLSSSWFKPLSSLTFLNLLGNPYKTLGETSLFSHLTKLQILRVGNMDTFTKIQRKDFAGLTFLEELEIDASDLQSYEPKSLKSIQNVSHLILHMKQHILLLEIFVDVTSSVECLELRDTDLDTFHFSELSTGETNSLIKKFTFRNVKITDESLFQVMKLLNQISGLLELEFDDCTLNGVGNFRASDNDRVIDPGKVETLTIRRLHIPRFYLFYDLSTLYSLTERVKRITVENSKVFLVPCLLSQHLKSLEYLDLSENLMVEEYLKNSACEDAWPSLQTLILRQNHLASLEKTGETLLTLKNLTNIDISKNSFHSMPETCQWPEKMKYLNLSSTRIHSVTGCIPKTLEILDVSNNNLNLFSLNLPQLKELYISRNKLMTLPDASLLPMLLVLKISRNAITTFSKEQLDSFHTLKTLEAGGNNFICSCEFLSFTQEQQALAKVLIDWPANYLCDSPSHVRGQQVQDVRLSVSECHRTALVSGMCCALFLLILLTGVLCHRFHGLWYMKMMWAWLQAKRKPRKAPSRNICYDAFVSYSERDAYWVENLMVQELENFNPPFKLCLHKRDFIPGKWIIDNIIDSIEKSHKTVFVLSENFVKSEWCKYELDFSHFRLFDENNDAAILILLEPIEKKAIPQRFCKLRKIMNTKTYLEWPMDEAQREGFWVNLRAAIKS
T1 sequence (Q9Y2C9 32-796): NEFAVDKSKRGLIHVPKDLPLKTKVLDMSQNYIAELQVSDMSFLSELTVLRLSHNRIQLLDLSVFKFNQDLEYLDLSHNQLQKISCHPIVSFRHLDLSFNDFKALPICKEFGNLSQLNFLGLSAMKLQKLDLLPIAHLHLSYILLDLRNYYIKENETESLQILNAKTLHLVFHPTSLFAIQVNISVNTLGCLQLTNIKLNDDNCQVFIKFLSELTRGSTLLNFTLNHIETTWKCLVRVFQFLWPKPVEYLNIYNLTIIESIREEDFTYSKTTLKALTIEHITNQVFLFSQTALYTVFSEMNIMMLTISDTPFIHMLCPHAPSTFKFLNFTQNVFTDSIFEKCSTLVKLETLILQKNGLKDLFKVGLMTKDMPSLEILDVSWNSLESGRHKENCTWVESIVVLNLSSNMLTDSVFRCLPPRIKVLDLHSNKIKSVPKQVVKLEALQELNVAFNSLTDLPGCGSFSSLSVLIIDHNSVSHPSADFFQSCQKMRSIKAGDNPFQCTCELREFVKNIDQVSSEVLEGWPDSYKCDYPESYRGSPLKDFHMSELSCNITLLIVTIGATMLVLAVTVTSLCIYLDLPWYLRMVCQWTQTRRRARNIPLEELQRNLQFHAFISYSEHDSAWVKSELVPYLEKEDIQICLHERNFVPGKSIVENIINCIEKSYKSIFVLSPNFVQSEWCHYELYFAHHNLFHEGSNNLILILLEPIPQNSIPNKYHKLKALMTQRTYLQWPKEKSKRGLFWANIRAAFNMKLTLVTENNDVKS

In the case of `Nc1cccc(COc2cccnc2N)c1` [TAC5-a, 3-((3-aminobenzyl)oxy)pyridin-2-amine], the “TLR2/6 (FSL-1)-mediated TNF-α secretion” value [1] is reported as “did not block”, the “TLR7/8-mediated IL-6 expression” value [2] is reported as “inhibited” and the “production of anti-dsDNA autoantibodies” value ([3]; 10 nmol/g daily i.p. for 11 days, FIG. 6B) is reported as “kept low”. The “serum antinuclear antibodies (ANAs)” value ([3]; 10 nmol/g daily i.p. for 11 days, FIG. 6C) was “reduced”, the “content of urine albumin” value ([3]; 10 nmol/g daily i.p. for 11 days, FIG. 6D) was “significantly reduced” and the “lymph node swelling, appearance evaluation or size decrease” value ([3]; 10 nmol/g daily intraperitoneally for 11 days, FIG. 6A) was “clearly observed; also recorded: significantly prevented”. For the same compound, the “IL-6 mRNA level in lymph nodes (qRT-PCR)” value ([3]; FIGS. 6E to 6G) was “significantly reduced”, the “IL-17 mRNA level in lymph nodes (qRT-PCR)” value ([3]; FIGS. 6E to 6G) was “significantly reduced” and the “TLR7 mRNA level in lymph nodes (qRT-PCR)” value ([3]; FIGS. 6E to 6G) was “significantly reduced”.

Source: US11629155B2, “Small molecule antagonist compound TAC5 series having toll-like receptor 3/7/8/9 inhibitory function” (AJOU UNIVERSITY INDUSTRY-ACADEMIC COOPERATION FOUNDATION, priority 2018, dated 2023)
